Reference: patent US9681664B2, “Macrocyclic picolinamides as fungicides” (Dow Agrosciences LLC, priority 2012, dated 2017)
Read-outs that look alike come from different tables or passages of the source.

Legend:
[1] = test system: Mycosphaerella graminicola; Anamorph: Septoria tritici; experiment: Leaf blotch of wheat (SEPTTR) disease control on wheat seedlings; assay type: in vivo; settings: Zymoseptoria tritici, High volume application, 100 ppm
Method in brief: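 Protective or curative format: Septoria tritici inoculation either preceded or followed fungicide application to first-leaf Yuma wheat. Severity scored 0–100%; control expressed versus untreated.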

[2] = test system: Puccinia triticina; Synonym: Puccinia recondite f. sp. tritici; experiment: Wheat brown rust (PUCCRT) disease control on wheat seedlings; assay type: in vivo; settings: Puccinia triticina, High volume application, 100 ppm
Method in brief: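 Yuma wheat grown to first fully emerged leaf was inoculated with Puccinia triticina spore suspension either before or after fungicide treatment, held overnight at 22° C. and 100% RH in darkness, then kept at 24° C. Fungicide applied by booth sprayer to run-off (acetone/water, 110 ppm Triton X-100) or as EC by track spray.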

[3] = 24 h, 1 Day Protectant, read-out: SEPTTR 1DP disease control
[4] = 72 h, 3 Day Curative, read-out: SEPTTR 3DC disease control
[5] = 24 h, 1 Day Protectant, read-out: PUCCRT 1DP disease control
[6] = 72 h, 3 Day Curative, read-out: PUCCRT 3DC disease control

Structure (SMILES)	pest or weed control at 100 ppm [1, 3] [%]	pest or weed control at 100 ppm [1, 4] [%]	pest or weed control at 100 ppm [2, 5] [%]	pest or weed control at 100 ppm [2, 6] [%]
COc1ccnc(C(=O)N[C@H]2CCC[C@H](OCC(C)C)[C@@H](OC(=O)C3CCCC3)[C@H](C)OC2=O)c1O [F149]	80 to 100	0 to 80	80 to 100	80 to 100
COc1ccnc(C(=O)N[C@H]2CCC[C@H](OCC(C)C)[C@@H](OC(=O)C3CCCC3)[C@H](C)OC2=O)c1OCOC(C)=O [F150]	80 to 100	80 to 100	80 to 100	80 to 100
COc1ccnc(C(=O)N[C@H]2CCC[C@H](OCC(C)C)[C@@H](OC(=O)C3CCCC3)[C@H](C)OC2=O)c1OC(C)=O [F151]	80 to 100	80 to 100	80 to 100	80 to 100
COCCC(=O)Oc1c(OC)ccnc1C(=O)N[C@H]1CCC[C@H](OCC(C)C)[C@@H](OC(=O)C2CCCC2)[C@H](C)OC1=O [F152]	80 to 100	80 to 100	80 to 100	80 to 100
CCCO[C@H]1CCC[C@H](NC(=O)c2nccc(OC)c2O)C(=O)O[C@@H](C)[C@@H]1OC1CCCC1 [F153]	80 to 100	80 to 100	80 to 100	80 to 100
COc1ccnc(C(=O)N[C@H]2CCC[C@H](OC(=O)C3CCCC3)[C@@H](OC3CCCC3)[C@H](C)OC2=O)c1O [F156]	80 to 100	80 to 100	80 to 100	80 to 100
COc1ccnc(C(=O)N[C@H]2CCC[C@H](OC(=O)C3CCCC3)[C@@H](OC3CCCC3)[C@H](C)OC2=O)c1OCOC(=O)C(C)C [F157]	80 to 100	80 to 100	80 to 100	80 to 100
COc1ccnc(C(=O)N[C@H]2CCC[C@H](OC(=O)C3CCCC3)[C@@H](OC3CCCC3)[C@H](C)OC2=O)c1OCOC(C)=O [F158]	80 to 100	80 to 100	80 to 100	80 to 100
COc1ccnc(C(=O)N[C@H]2CCC[C@H](OC(=O)C3CCCC3)[C@@H](OC3CCCC3)[C@H](C)OC2=O)c1OC(C)=O [F159]	80 to 100	80 to 100	80 to 100	80 to 100
COc1ccnc(C(=O)N[C@H]2CCC[C@H](Oc3ccc(F)cc3)[C@@H](OC3CCCC3)[C@H](C)OC2=O)c1O [F160]	80 to 100	80 to 100	80 to 100	80 to 100
COc1ccnc(C(=O)N[C@H]2CCC[C@H](Oc3ccc(F)cc3)[C@@H](OC3CCCC3)[C@H](C)OC2=O)c1OCOC(=O)C(C)C [F161]	80 to 100	80 to 100	80 to 100	80 to 100
COc1ccnc(C(=O)N[C@H]2CCC[C@H](Oc3ccc(F)cc3)[C@@H](OC3CCCC3)[C@H](C)OC2=O)c1OCOC(C)=O [F162]	80 to 100	80 to 100	80 to 100	0 to 80
COc1ccnc(C(=O)N[C@H]2CCC[C@H](OC3CCCC3)[C@@H](OCCCc3ccccc3)[C@H](C)OC2=O)c1O [F163]	80 to 100	0 to 80	80 to 100	80 to 100
CCCCCO[C@H]1[C@H](C)OC(=O)[C@@H](NC(=O)c2nccc(OC)c2O)CCC[C@@H]1OC1CCCC1 [F164]	80 to 100	80 to 100	80 to 100	80 to 100
COc1ccc(O[C@H]2CCC[C@H](NC(=O)c3nccc(OC)c3O)C(=O)O[C@@H](C)[C@@H]2OC2CCCC2)cc1 [F167]	80 to 100	80 to 100	80 to 100	80 to 100
